Source: patent US20260207585A1, “METHODS AND COMPOSITIONS FOR THE TREATMENT OF PARKINSON'S DISEASE, HUNTINGTON'S DISEASE, AMYOTROPHIC LATERAL SCLEROSIS, AND LEARNING DISORDERS” (Cedars-Sinai Medical Center, priority 2022, published 2026)

Columns and labels:
Assay type in all cases: biochemical
[1] = target: T1, NSD3 (Homo sapiens, UniProt Q9BZ95); experiment: Methyltransferase inhibition panel: NSD3; details: control compound; substrate Nucleosomes 0.05 mg/mL
T1 sequence (Q9BZ95 1-1437): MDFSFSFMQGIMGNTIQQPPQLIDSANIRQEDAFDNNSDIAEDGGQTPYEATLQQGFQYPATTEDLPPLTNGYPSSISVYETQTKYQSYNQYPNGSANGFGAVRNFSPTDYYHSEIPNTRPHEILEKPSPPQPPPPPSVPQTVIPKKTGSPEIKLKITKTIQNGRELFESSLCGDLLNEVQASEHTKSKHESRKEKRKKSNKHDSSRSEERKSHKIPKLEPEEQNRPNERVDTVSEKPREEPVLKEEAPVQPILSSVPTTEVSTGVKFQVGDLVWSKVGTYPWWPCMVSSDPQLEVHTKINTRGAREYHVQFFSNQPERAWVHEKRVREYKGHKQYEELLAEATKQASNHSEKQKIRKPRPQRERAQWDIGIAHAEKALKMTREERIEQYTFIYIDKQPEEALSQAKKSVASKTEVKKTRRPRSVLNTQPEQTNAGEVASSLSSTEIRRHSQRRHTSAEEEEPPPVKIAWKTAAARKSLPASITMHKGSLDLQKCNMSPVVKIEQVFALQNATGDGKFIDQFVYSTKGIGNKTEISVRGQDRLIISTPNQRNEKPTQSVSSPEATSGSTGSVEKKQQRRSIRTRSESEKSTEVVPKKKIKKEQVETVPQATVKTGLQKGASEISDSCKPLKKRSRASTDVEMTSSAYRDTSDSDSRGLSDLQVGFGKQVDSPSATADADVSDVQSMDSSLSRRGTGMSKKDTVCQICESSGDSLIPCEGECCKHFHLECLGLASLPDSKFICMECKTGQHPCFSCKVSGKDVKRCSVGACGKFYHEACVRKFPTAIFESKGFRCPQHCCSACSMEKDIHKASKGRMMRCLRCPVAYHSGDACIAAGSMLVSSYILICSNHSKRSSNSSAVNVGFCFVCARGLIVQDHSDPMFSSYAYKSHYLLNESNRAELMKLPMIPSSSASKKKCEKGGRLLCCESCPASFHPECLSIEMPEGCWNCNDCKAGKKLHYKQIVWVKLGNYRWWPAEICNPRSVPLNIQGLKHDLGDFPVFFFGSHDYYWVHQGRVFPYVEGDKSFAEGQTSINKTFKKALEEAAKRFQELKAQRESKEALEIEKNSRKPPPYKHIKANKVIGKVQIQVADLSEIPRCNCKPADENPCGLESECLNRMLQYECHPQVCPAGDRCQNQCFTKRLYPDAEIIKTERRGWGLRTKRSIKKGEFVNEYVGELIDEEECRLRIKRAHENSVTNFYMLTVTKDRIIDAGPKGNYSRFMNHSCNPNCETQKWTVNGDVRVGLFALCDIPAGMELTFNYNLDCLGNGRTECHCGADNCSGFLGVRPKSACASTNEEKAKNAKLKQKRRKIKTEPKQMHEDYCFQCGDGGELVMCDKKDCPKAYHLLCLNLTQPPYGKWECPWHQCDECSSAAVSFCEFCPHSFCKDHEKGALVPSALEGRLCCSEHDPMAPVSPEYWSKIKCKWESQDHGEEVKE
Experimental: (§1) The ability of ETP69 to inhibit methyltransferases was tested.

[2] = target: ASH1L (Homo sapiens, UniProt Q9NR48); experiment: Methyltransferase inhibition panel: ASH1L; details: control compound; substrate Nucleosomes 0.05 mg/mL
Experimental: as §1

[3] = target: T2, SET8 (Homo sapiens, UniProt Q9NQR1); experiment: Methyltransferase inhibition panel: SET8; details: control compound; substrate Nucleosomes 0.05 mg/mL
T2 sequence (Q9NQR1 1-393): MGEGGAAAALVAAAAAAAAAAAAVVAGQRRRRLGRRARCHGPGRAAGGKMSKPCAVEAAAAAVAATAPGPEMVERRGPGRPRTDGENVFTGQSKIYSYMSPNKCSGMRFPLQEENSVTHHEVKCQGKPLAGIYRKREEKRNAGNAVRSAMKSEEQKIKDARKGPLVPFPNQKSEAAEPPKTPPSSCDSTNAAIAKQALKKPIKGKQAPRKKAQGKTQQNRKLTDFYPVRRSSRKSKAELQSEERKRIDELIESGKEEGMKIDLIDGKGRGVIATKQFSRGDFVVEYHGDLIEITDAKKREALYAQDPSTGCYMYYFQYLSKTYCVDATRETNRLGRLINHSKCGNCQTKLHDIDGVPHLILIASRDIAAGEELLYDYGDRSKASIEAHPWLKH
Experimental: as §1

[4] = target: SUV420H1TV2 (Homo sapiens, UniProt Q4FZB7); experiment: Methyltransferase inhibition panel: SUV420H1TV2; details: control compound; substrate Nucleosomes 0.05 mg/mL
Experimental: as §1

[5] = target: DNMT3a (Homo sapiens, UniProt Q9Y6K1); experiment: Methyltransferase inhibition panel: DNMT3a; details: read-out: Control IC50*
Sequence of DNMT3a (Q9Y6K1 whole entry, looked up): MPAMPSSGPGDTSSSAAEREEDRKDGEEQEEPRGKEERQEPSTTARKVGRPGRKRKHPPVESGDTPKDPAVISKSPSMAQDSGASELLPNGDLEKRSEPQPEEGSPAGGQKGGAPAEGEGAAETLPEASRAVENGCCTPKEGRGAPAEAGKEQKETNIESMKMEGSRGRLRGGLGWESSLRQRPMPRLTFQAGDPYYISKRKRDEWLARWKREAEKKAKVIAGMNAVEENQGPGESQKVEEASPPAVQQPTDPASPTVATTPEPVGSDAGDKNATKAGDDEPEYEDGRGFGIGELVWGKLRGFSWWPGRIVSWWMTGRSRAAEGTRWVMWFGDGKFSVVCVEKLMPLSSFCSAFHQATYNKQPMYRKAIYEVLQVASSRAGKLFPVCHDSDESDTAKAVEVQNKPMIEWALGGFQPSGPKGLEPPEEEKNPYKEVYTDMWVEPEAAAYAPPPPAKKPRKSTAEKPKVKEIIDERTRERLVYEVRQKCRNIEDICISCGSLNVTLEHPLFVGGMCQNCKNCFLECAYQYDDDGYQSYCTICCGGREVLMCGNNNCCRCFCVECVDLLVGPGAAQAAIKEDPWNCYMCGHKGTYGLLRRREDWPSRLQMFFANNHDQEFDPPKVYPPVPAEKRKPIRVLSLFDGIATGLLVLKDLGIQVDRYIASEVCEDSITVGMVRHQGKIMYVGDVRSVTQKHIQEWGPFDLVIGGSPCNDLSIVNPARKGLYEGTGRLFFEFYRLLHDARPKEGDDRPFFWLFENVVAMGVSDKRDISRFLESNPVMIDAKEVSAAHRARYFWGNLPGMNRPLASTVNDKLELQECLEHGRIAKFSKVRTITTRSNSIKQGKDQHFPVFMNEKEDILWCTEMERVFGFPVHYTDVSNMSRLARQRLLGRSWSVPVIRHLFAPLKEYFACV
Experimental: as §1

[6] = target: DNMT3b (Homo sapiens, UniProt Q9UBC3); experiment: Methyltransferase inhibition panel: DNMT3b; details: read-out: Control IC50*
Experimental: as §1

[7] = target: T3, NRMT1 (Homo sapiens, UniProt Q9BV86); experiment: Methyltransferase inhibition panel: NRMT1; details: control compound; substrate RCC1 5 μM
T3 sequence (Q9BV86 1-223): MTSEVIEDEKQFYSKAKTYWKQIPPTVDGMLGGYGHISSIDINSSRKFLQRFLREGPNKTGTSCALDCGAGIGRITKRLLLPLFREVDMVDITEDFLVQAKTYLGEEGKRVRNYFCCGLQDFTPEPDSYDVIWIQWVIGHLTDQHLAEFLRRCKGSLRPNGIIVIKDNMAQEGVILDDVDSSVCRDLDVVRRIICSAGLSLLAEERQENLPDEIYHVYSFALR
Experimental: as §1

[8] = target: MLL3 Complex (Homo sapiens, UniProt Q8NEZ4); experiment: Methyltransferase inhibition panel: MLL3 Complex; details: control compound; substrate Nucleosomes 0.05 mg/mL
Sequence of MLL3 Complex (Q15291 whole entry): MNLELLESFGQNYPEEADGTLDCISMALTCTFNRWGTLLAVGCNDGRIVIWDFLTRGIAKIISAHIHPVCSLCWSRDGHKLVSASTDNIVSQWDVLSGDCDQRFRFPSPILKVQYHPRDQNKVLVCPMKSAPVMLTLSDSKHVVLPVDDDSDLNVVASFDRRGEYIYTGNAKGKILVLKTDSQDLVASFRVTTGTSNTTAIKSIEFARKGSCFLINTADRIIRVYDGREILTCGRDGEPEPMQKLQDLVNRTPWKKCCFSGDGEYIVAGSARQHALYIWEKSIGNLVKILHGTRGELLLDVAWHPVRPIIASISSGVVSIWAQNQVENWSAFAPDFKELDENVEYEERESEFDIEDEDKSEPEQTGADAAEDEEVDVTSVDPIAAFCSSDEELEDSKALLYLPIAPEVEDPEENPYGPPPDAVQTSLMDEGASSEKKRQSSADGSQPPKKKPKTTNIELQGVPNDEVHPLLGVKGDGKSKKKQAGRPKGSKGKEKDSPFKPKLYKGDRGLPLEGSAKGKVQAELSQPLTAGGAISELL
Sequence of MLL3 Complex (Q8NEZ4 4689-4911): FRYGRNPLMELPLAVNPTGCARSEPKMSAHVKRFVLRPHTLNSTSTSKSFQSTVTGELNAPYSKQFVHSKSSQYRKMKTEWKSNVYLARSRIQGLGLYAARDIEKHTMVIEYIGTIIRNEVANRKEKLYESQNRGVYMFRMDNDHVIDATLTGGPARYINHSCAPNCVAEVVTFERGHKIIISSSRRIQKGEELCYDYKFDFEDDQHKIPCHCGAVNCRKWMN
Sequence of MLL3 Complex (Q9UBL3 96-628, further chain): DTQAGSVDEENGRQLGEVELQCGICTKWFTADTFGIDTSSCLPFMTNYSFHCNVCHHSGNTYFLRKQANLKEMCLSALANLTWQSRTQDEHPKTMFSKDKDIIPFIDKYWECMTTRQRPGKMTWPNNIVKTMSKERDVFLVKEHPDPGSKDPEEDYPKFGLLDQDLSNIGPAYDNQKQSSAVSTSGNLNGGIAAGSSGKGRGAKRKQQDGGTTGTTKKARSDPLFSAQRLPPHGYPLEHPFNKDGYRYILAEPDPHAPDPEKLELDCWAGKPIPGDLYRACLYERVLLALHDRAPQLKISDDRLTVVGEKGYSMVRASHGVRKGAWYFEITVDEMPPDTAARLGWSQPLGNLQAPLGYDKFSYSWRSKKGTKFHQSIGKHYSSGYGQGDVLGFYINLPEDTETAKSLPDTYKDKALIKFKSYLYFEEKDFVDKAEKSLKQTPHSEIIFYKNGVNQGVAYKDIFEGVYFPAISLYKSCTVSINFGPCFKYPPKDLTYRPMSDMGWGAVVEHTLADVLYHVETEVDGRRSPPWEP
Sequence of MLL3 Complex (Q9C005 whole entry, further chain): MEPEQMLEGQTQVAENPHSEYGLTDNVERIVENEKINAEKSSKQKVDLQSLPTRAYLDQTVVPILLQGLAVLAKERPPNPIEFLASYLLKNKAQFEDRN
Experimental: as §1

[9] = target: METTL21A (Homo sapiens, UniProt Q8WXB1); experiment: Methyltransferase inhibition panel: METTL21A; details: control compound; substrate HSPA8-[CTD] 2.5 μM
Experimental: as §1

[10] = target: NSD1 (Homo sapiens, UniProt Q96L73); experiment: Methyltransferase inhibition panel: NSD1; details: control compound; substrate Nucleosomes 0.05 mg/mL
Experimental: as §1

[11] = target: T4, SMYD3 (Homo sapiens, UniProt Q9H7B4); experiment: Methyltransferase inhibition panel: SMYD3; details: control compound; substrate MEKK2 0.5 μM
T4 sequence (Q9H7B4 1-428): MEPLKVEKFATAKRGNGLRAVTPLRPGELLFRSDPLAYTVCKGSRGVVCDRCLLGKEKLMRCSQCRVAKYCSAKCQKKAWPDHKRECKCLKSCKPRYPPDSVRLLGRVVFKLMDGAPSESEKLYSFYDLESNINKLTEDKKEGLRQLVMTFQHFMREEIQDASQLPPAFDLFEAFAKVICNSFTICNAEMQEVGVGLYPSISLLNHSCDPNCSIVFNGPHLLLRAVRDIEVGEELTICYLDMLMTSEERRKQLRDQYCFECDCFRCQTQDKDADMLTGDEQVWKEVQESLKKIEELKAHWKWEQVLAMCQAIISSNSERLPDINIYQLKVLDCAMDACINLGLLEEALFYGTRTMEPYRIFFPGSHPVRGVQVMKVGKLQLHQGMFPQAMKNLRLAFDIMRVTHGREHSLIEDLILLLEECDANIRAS
Experimental: as §1

[12] = target: SETDB1 (Homo sapiens, UniProt Q15047); experiment: Methyltransferase inhibition panel: SETDB1; details: control compound; substrate Histone H3 5 μM
Experimental: as §1

[13] = target: SET1b Complex (Homo sapiens, UniProt Q9UPS6); experiment: Methyltransferase inhibition panel: SET1b Complex; details: control compound; substrate Core Histone 0.05 mg/mL
Experimental: as §1

[14] = target: DNMT3b/3L (Homo sapiens, UniProt Q9UBC3); experiment: Methyltransferase inhibition panel: DNMT3b/3L; details: read-out: Control IC50*
Experimental: as §1

[15] = target: PRMT3 (Homo sapiens, UniProt O60678); experiment: Methyltransferase inhibition panel: PRMT3; details: control compound; substrate Histone H4 5 μM
Experimental: as §1

[16] = target: SETD2 (Homo sapiens, UniProt Q9BYW2); experiment: Methyltransferase inhibition panel: SETD2; details: control compound; substrate Nucleosomes 0.05 mg/mL
Sequence of SETD2 (Q9BYW2 whole entry): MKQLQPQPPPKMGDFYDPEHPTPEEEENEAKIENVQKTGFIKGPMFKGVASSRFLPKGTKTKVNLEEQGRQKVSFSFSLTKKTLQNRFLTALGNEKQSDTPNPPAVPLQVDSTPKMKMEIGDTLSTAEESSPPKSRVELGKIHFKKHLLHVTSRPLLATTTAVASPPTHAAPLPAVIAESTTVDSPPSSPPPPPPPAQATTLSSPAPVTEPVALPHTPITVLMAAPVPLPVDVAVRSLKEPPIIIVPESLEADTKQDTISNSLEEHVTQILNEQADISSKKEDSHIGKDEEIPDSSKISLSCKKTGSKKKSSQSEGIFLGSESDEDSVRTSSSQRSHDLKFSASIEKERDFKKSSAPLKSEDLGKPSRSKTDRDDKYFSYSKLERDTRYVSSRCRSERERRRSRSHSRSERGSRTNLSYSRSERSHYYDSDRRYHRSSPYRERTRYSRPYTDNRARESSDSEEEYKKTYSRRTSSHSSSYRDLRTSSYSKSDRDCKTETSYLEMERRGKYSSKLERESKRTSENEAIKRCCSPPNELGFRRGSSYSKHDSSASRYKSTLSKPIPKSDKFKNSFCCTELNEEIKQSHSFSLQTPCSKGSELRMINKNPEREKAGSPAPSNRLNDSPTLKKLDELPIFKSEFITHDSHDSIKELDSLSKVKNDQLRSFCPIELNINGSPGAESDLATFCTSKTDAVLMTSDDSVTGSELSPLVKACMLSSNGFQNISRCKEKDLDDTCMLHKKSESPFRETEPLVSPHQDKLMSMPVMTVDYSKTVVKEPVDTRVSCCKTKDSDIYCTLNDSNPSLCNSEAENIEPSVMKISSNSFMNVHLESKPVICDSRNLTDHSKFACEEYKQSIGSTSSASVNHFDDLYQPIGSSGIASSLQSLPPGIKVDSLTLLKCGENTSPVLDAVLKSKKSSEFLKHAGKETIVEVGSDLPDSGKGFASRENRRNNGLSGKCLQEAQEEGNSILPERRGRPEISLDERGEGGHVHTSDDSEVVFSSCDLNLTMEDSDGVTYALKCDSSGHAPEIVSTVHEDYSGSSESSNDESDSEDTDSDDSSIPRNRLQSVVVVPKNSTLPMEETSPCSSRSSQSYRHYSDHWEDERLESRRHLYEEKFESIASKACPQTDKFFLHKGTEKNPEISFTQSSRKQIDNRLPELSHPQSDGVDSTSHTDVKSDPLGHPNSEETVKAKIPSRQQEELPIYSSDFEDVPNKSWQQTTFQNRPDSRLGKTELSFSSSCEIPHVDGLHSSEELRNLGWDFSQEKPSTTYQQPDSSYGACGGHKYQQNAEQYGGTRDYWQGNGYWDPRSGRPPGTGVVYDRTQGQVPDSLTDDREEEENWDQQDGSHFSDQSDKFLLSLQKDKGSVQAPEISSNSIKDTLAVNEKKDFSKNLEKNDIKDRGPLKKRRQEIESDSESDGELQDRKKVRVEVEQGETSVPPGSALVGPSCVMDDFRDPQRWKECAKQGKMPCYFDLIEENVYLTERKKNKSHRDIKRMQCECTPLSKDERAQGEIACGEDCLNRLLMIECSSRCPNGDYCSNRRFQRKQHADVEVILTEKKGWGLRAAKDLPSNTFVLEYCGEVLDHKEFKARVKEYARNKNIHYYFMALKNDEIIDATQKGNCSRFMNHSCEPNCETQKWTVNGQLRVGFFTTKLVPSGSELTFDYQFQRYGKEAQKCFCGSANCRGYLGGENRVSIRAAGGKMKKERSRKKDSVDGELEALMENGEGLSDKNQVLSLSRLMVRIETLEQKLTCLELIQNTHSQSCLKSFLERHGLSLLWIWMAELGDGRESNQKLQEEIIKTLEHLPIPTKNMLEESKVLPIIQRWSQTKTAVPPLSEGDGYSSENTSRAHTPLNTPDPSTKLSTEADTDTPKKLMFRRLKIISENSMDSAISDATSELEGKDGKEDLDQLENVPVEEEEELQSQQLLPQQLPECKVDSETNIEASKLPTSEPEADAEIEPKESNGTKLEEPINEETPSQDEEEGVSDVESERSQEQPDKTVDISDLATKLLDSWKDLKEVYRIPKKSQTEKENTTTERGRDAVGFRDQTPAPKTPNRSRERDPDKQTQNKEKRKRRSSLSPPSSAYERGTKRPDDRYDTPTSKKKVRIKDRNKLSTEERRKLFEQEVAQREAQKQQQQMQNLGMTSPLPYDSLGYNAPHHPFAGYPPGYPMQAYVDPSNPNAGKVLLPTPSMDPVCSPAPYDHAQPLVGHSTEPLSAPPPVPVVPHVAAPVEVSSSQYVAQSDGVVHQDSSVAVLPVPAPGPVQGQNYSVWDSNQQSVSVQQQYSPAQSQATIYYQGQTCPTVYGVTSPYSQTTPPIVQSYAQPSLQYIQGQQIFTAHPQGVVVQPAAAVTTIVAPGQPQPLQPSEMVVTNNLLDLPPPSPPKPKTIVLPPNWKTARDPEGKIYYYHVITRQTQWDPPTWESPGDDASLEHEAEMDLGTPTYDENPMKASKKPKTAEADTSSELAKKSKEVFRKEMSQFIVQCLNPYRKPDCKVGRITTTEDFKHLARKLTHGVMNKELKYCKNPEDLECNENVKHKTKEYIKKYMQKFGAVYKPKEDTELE
Experimental: as §1

[17] = target: SUV39H2 (Homo sapiens, UniProt Q9H5I1); experiment: Methyltransferase inhibition panel: SUV39H2; details: control compound; substrate Histone H3 5 μM
Experimental: as §1

[18] = target: T5, SET7/9 (Homo sapiens, UniProt Q8WTS6); experiment: Methyltransferase inhibition panel: SET7/9; details: control compound; substrate Core Histone 0.05 mg/mL
T5 sequence (Q8WTS6 1-366): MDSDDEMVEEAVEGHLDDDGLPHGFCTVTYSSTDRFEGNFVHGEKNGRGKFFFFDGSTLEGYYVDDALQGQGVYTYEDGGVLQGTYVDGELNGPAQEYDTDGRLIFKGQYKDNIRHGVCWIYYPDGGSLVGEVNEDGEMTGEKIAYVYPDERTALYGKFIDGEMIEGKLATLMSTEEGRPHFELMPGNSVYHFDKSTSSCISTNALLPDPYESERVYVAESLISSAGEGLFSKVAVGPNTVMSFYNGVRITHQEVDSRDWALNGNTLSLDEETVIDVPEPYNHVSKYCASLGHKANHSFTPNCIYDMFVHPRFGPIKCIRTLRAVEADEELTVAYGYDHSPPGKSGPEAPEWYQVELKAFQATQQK
Experimental: as §1

[19] = target: T6, GLP (Homo sapiens, UniProt Q9H9B1); experiment: Methyltransferase inhibition panel: GLP; details: read-out: Control IC50*
T6 sequence (Q9H9B1 1-1298): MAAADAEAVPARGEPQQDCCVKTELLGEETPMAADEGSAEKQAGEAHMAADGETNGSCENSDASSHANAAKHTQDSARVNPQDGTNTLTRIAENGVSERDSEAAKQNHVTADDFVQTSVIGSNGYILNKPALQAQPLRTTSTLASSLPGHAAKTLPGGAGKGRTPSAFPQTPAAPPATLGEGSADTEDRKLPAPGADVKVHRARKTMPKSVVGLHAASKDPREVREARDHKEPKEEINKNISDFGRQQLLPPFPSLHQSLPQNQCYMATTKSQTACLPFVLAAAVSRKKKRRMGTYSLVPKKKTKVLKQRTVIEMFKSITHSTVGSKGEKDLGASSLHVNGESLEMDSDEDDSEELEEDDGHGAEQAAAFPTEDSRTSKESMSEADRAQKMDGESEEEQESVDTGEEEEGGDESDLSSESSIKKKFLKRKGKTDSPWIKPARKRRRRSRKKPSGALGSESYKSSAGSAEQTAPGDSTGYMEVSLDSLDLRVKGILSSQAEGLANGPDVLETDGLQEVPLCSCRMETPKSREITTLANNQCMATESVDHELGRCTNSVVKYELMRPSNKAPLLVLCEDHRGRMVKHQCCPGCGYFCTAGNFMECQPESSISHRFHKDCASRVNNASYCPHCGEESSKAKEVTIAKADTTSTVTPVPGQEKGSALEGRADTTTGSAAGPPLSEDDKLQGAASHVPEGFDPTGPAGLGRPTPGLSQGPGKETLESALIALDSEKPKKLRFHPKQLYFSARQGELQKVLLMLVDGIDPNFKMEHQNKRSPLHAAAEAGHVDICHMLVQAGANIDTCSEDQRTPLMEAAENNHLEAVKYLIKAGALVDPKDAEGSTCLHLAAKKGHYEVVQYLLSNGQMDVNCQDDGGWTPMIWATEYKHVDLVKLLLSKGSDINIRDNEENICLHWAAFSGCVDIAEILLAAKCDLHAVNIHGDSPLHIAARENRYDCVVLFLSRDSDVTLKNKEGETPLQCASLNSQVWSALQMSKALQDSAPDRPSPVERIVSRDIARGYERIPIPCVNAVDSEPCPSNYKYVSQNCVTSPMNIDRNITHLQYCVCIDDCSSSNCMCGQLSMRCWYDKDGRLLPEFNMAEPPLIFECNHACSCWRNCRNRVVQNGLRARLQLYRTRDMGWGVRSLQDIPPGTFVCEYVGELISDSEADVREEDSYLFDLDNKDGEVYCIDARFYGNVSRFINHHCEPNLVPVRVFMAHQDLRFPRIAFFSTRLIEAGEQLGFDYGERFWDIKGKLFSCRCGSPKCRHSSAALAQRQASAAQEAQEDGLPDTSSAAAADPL
Experimental: as §1

[20] = target: MLL2 Complex (Homo sapiens, UniProt O14686); experiment: Methyltransferase inhibition panel: MLL2 Complex; details: control compound; substrate Nucleosomes 0.05 mg/mL
Experimental: as §1

[21] = target: MLL1 Complex (Homo sapiens, UniProt Q03164); experiment: Methyltransferase inhibition panel: MLL1 Complex; details: control compound; substrate Nucleosomes 0.05 mg/mL
Experimental: as §1

[22] = target: MLL4 Complex (Homo sapiens, UniProt Q9UMN6); experiment: Methyltransferase inhibition panel: MLL4 Complex; details: control compound; substrate Nucleosomes 0.05 mg/mL
Experimental: as §1

[23] = target: PRMT6 (Homo sapiens, UniProt Q96LA8); experiment: Methyltransferase inhibition panel: PRMT6; details: control compound; substrate GST-GAR 5 μM
Experimental: as §1

Structure (SMILES): CN1C(=O)[C@@]23C[C@]4([C@]56C[C@@]78SS[C@@](CO)(C(=O)N7[C@H]5Nc5ccccc56)N(C)C8=O)c5ccccc5N[C@@H]4N2C(=O)[C@]1(CO)SS3 [Chaetocin, reference compound]
- IC50 [1]: 85.2 nM
- IC50 [2]: 30.8 nM

Structure (SMILES): Cc1ccc(NC2=CC(=O)c3sc(C)nc3C2=O)cc1 [Ryuvidine, reference compound]
- IC50 [3]: 109 nM

Structure (SMILES): Nc1ncnc2c1ncn2[C@@H]1O[C@H](CSCC[C@H](N)C(=O)O)[C@@H](O)[C@H]1O [SAH, reference compound]
- IC50 [4]: 117000 nM
- IC50 [5]: 154 nM
- IC50 [6]: 37.9 nM
- IC50 [7]: 310 nM
- IC50 [8]: 18900 nM
- IC50 [9]: 64600 nM
- IC50 [10]: 7510 nM
- IC50 [11]: 14200 nM
- IC50 [12]: 1040 nM
- IC50 [13]: 8590 nM
- IC50 [14]: 19.3 nM
- IC50 [15]: 870 nM
- IC50 [16]: 3060 nM
- IC50 [17]: 44300 nM
- IC50 [18]: 82900 nM
- IC50 [19]: 553 nM
- IC50 [20]: 21200 nM
- IC50 [21]: 205 nM
- IC50 [22]: 816 nM
- IC50 [23]: 204 nM
